Consider 14 compounds from patent publication US20100168112A1, “2-Substituted and 4-substituted aryl nitrone compounds” (RENOVIS, INC., priority 2004, published 2010).

Where two headings read alike, the source gives them in different places.

Data set [1] in a line: Solubility measurement at pH 7.4. The format is physicochemical. The settings on record: aqueous buffer, thermodynamic from solid, phosphate buffer pH 7.4, room temperature. As for the experimental part:
Nitrone compounds (>3 mg) of this invention were mixed with a phosphate buffer at pH 7.4 to make a >0.3 mg/mL mixture. The mixture was vortexed for more than 2 hours and equilibrated over 12 hours at room temperature. The equilibrated mixture was used to saturate a 0.45 μm Tuffryn syringe filter. After saturating, the remainder of the mixture was filtered through the saturated filter. The filtrate was diluted by 1, 10, 100, and 1000 fold and analyzed using a LC/MS/MS method with standard curve ranging from 1 to 1000 ng/mL.

Data set [2] can be described thus: Pharmacokinetic evaluation following intravenous and oral administration in rats. The format is in vivo. As to conditions: male, Sprague-Dawley; for Cmax / Tmax / bioavailability: 5 mg/kg; for Cmax: rat plasma; for Cmax / Tmax: oral gavage, 2 mg/mL at 2.5 mL/kg; for clearance / Vd / Tmax / bioavailability / half-life: plasma, rat; for clearance / Vd / half-life: 1 mg/kg; for clearance / Vd: intravenous administration, 1 mg/mL at 1.0 mL/kg; for clearance: read-out: CI (clearance) (converted); for Vd: read-out: Vd (volume of distribution); for bioavailability: po 2 mg/mL at 2.5 mL/kg vs iv 1 mg/mL at 1.0 mL/kg, dose-normalized, read-out: F (%) oral bioavailability; for half-life: intravenous, read-out: T1/2 elimination half life (converted). In outline:
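Male Sprague-Dawley rats, fasted, dosed iv (1 mg/mL formulation, 1.0 mL/kg, jugular or tail vein) or by oral gavage (2 mg/mL suspension, 2.5 mL/kg). Plasma sampled from 2 min to 480 min, some to 24 h, and quantified by LC-MS/MS (MRM). Parameters from noncompartmental analysis.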

The nature of data set [3]: Microsomal stability in rat liver microsomes. It is filed as in vitro ADME. The settings on record: rat liver microsomes 0.5 mg/ml, 1 mM NADPH, ~500 ng/ml compound, 37° C. As for the experimental part:
Frozen Sprague-Dawley rat liver microsomes (RLM) were thawed on ice and gently mixed before use. The final reaction mixture consisted of a nitrone compound of this invention (at ˜500 ng/ml), 1 mM NADPH, and 0.5 mg/ml of RLM protein in 0.1 M PBS (pH7.4), with organic solvent concentration not exceeding 1% (v/v). Per set of incubations, a positive control compound was included. The mixture was first pre-incubated 3 to 5 minutes at 37° C. without NADPH, and the reaction was then initialized by the addition of NADPH and incubated at 37° C. for up to 30 minutes. An aliquot of the reaction mixture was sampled at the initiation of the reaction and at designated time after reaction started. The drawn samples were quenched with acetonitrile, diluted with mobile phase to ensure the detection of test article in the linear range, and analyzed by LC/MS/MS. Half-life or percentage of remaining nitrone compound was calculated using standard methods. A similar method, or a slight variation of it, was used to test the stability of nitrones in human liver microsomes (HLM).

Data set [4] in a line: DPPH free radical-scavenging/antioxidant assay. It is filed as biochemical. The settings on record: 50 μM DPPH in 80% methanol; 24 h time point; read-out: EC50 (concentration at which a compound reduces by 50% the peak absorbance of DPPH at 520 nm). A digest of the protocol:
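Compounds diluted 100-fold from DMSO stocks into 50 μM DPPH in 80% methanol; absorbance at 520 nm followed kinetically to steady state, with the 24 h reading used. EC50 interpolated from OD520 versus concentration; Trolox, BHA, PBN and S-PBN as positive controls, DMSO as vehicle.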
(In general: Loss of DPPH colour is used to gauge radical scavenging.)

The nature of data set [5]: Plasma protein binding (equilibrium dialysis), rat plasma. The format is in vitro ADME. The settings on record: 1 μg/mL in plasma, dialysis vs phosphate buffer pH 7.4 overnight at 37° C., read-out: Plasma Protein Binding % Bound Rat (converted). The method, then: (§1) Nitrone compounds of this invention were individually dissolved in DMSO to make a stock solution of 1 mg/mL. The compound was spiked into plasma to achieve a final concentration of 1 μg/mL. Spiked plasma and phosphate buffer (0.1M, pH 7.4), 200 μl each, were added to the opposite sides of the membrane in a 96-well equilibrium dialyzer. The dialyzer plate was then covered and equilibrated overnight at 37° C. on an orbital shaker. Aliquots were taken from the plasma and the buffer compartments and prepared by adding blank plasma to samples from the buffer compartments and drug-free phosphate buffer to samples from the plasma compartments to eliminate the matrix effects. The samples were extracted using protein precipitation procedure by adding CH3CN. The samples were analyzed using a LC/MS/MS method. The percentage of free and bound nitrone compound were calculated according to the following formula:
(§2) %Free=[Free Drug/Total Drug]*100=[(Peak Area)buffer/(Peak Area)serum]*100%Bound=100%Free
(In general: Equilibrium dialysis compares concentrations on both sides of a semipermeable membrane.)

Data set [6] in a line: Plasma protein binding (equilibrium dialysis), human plasma. It is filed as in vitro ADME. The settings on record: 1 μg/mL in plasma, dialysis vs phosphate buffer pH 7.4 overnight at 37° C., read-out: Plasma Protein Binding % Bound Human (converted). As for the experimental part:
as §1, §2

The mark [7] stands for this setting: read-out: Solubility @ pH 7.4 (μg/mL).

In the case of `CC(C)(C)/[N+]([O-])=C/c1ccc(C(=O)O)cc1` [Compound 13, N-tert-Butyl-C-(4-carboxy-phenyl)nitrone], the solubility in data set [1] (read-out: Solubility @ pH 7.4) was found to be 9040 µM. Moreover, the solubility in data set [1] (setting [7]) worked out at 2000 µg/mL. Also, in data set [2], the concentration peaked (Cmax) at 5580 ng/mL; the clearance was 12.8 mL/min/kg; the Vd was determined as 0.41 L/kg; the time to peak (Tmax) – broadly, the time from dosing to the highest level – was determined as 19.8 min. In data set [2], the bioavailability – broadly, the share of a dose that reaches the circulation, judged against a reference dose that is usually intravenous – was determined as 64.7% and the half-life was 22.2 min. In addition, the “% of Nitrone Remaining at 30 min (Rat)” value in data set [3] amounted to 100%.
Turning to `CC(C)(C)NC(=O)c1ccc(/C=[N+](\[O-])C(C)(C)C)cc1` [Compound 18, N-(tert-Butyl)-C-[4-(N-tert-butylcarbamoyl)phenyl]nitrone], in data set [1] (read-out: Solubility @ pH 7.4), the solubility turned out to be 1360 µM. Moreover, in data set [1] (setting [7]), the solubility turned out to be 376 µg/mL. Besides, in data set [2], the peak concentration (Cmax) – broadly, the peak of the concentration-time curve – stood at 2240 ng/mL; the clearance is 21.5 mL/min/kg; the Vd was 0.62 L/kg; the Tmax came out at 25.2 min. In data set [2], the bioavailability is 75.1% and the half-life was 19.8 min. Further, the “% of Nitrone Remaining at 30 min (Rat)” value in data set [3] is reported as 100%.
`CC(C)(C)/[N+]([O-])=C/c1ccc(C(N)=O)cc1` [Compound 19]: the solubility in data set [1] (read-out: Solubility @ pH 7.4) amounted to 14200 µM. Also, the solubility in data set [1] (setting [7]) is 3130 µg/mL. In data set [2], the highest concentration (Cmax) came to 3000 ng/mL, the clearance is 2.33 mL/min/kg, the Vd was determined as 0.74 L/kg and the Tmax worked out at 19.8 min. Further, in data set [2], the bioavailability amounted to 39.5% and the half-life was 218 min. Besides, the “% of Nitrone Remaining at 30 min (Rat)” value in data set [3] was found to be 100%.
On to `CCN(CC)S(=O)(=O)c1ccccc1/C=[N+](\[O-])C(C)(C)C` [Compound 30, N-tert-Butyl-C-(2-diethylsulfamoylphenyl)nitrone], for which, in data set [1] (read-out: Solubility @ pH 7.4), the solubility was 2530 µM. The solubility in data set [1] (setting [7]) came to 791 µg/mL. Moreover, in data set [4], the EC50 is over 1000 µM. In addition, in data set [2], the Cmax came out at 40 ng/mL, the clearance was 93.8 mL/min/kg, the Vd is 4.15 L/kg and the Tmax worked out at 4.98 min. In data set [2], the bioavailability came out at 1.7% and the half-life was 30.6 min. Moreover, in data set [3], the “% of Nitrone Remaining at 30 min (Rat)” value was found to be 7.4%.
Turning to `CCN(CC)S(=O)(=O)c1ccccc1/C=[N+](\[O-])C1CCCCC1` [Compound 31, N-Cyclohexyl-C-(2-diethylsulfamoylphenyl)nitrone], the solubility in data set [1] (read-out: Solubility @ pH 7.4) was found to be 2890 µM; in data set [1] (setting [7]), 978 µg/mL. In data set [4], the EC50 is over 1000 µM. The “% of Nitrone Remaining at 30 min (Rat)” value in data set [3] was 0%.
As for `CCN(CC)S(=O)(=O)c1ccccc1/C=[N+](\[O-])Cc1ccccc1` [Compound 32, N-Benzyl-C-(2-diethylsulfamoylphenyl)nitrone], the EC50 in data set [4] is over 1000 µM. Further, the “% of Nitrone Remaining at 30 min (Rat)” value in data set [3] amounted to 0%.
As to `O=S(=O)(c1ccccc1/C=[N+](\[O-])C1CCCCC1)N1CCCCC1` [Compound 34, N-Cyclohexyl-C-[2-(piperidine-1-sulfonyl)phenyl]nitrone], the results for the solubility in data set [1] (read-out: Solubility @ pH 7.4) and in data set [1] (setting [7]) were 1420 µM and 500 µg/mL, respectively. Besides, in data set [4], the EC50 is over 1000 µM. The “% of Nitrone Remaining at 30 min (Rat)” value in data set [3] came to 0%.
The corresponding values for `O=S(=O)(c1ccccc1/C=[N+](\[O-])Cc1ccccc1)N1CCCCC1` [Compound 35, N-Benzyl-C-[2-(piperidine-1-sulfonyl)phenyl]nitrone] are 107 µM, 38.4 µg/mL, over 1000 µM and 0%.
In the case of `CCS(=O)(=O)c1ccc(/C=[N+](\[O-])C(C)(C)C)cc1` [Compound 67, N-tert-Butyl-C-(4-ethanesulfonylphenyl)nitrone], the fraction unbound at 1 μg/mL in data set [5] was 0.78. Besides, the EC50 in data set [4] was over 1000 µM. In data set [6], the fraction unbound at 1 μg/mL is 0.864. In data set [2], the Cmax is 4760 ng/mL, the clearance was 1.17 mL/min/kg, the Vd was determined as 0.42 L/kg and the Tmax amounted to 79.8 min. Also, in data set [2], the bioavailability amounted to 46.4% and the half-life is 266 min.
`CCS(=O)(=O)c1ccccc1/C=[N+](\[O-])C(C)(C)C` [Compound 68, N-tert-Butyl-C-(2-ethanesulfonylphenyl)nitrone]: the fraction unbound at 1 μg/mL in data set [5] was 0.783. The EC50 in data set [4] was 500 to 1000 µM. Also, the fraction unbound at 1 μg/mL in data set [6] was 0.781. In data set [2], the Cmax was 2110 ng/mL, the clearance was 7.83 mL/min/kg, the Vd turned out to be 0.63 L/kg and the Tmax was 59.4 min. In data set [2], the bioavailability turned out to be 36.4% and the half-life is 55.8 min.
For the compound `CC(C)S(=O)(=O)c1ccccc1/C=[N+](\[O-])C(C)(C)C` [Compound 69, N-tert-Butyl-C-[2-(2-propanesulfonyl)phenyl]nitrone], the fraction unbound at 1 μg/mL in data set [5] is 0.755. Besides, the EC50 in data set [4] is over 1000 µM. The fraction unbound at 1 μg/mL in data set [6] is 0.532. In data set [2], the highest concentration (Cmax) was 1840 ng/mL, the clearance was 14 mL/min/kg, the Vd was found to be 0.76 L/kg and the time of peak concentration (Tmax) is 11.4 min. In data set [2], the bioavailability is 54.9% and the half-life was 38.4 min.
Take `CC(C)S(=O)(=O)c1ccc(/C=[N+](\[O-])C(C)(C)C)cc1` [Compound 70, N-tert-Butyl-C-[4-(2-propanesulfonyl)phenyl]nitrone]: the fraction unbound at 1 μg/mL in data set [5] is 0.718. The EC50 in data set [4] is over 1000 µM. For the same compound, the fraction unbound at 1 μg/mL in data set [6] was 0.796. In data set [2], the peak level (Cmax) was 1270 ng/mL, the clearance was 20 mL/min/kg, the Vd is 1.07 L/kg and the time of peak concentration (Tmax) was determined as 29.4 min. Moreover, in data set [2], the bioavailability was 52.2% and the half-life is 37.2 min.
Take `CC(C)(C)/[N+]([O-])=C/c1ccc(S(=O)(=O)C2CCCC2)cc1` [Compound 71, N-tert-Butyl-C-[4-(cyclopentanesulfonyl)phenyl]nitrone]: the fraction unbound at 1 μg/mL in data set [5] was 0.484. In addition, the EC50 in data set [4] was over 1000 µM. In data set [6], the fraction unbound at 1 μg/mL is 0.544. Further, in data set [2], the Cmax was determined as 108 ng/mL, the clearance was 31 mL/min/kg, the Vd amounted to 1.66 L/kg and the Tmax amounted to 16.8 min. In addition, in data set [2], the bioavailability turned out to be 5.87% and the half-life is 45.6 min.
`CC(C)(C)/[N+]([O-])=C/c1ccc(C(F)(F)F)cc1S(C)(=O)=O` [Compound 72, N-tert-Butyl-C-[2-methanesulfonyl-4-trifluoromethylphenyl]nitrone]: the fraction unbound at 1 μg/mL in data set [5] is 0.319. Besides, the EC50 in data set [4] is over 1000 µM. Moreover, in data set [6], the fraction unbound at 1 μg/mL was 0.367. In data set [2], the Cmax came to 1520 ng/mL, the clearance was 11 mL/min/kg, the Vd came to 2.69 L/kg and the Tmax was determined as 19.2 min. For the same compound, in data set [2], the bioavailability came to 59.8% and the half-life is 169 min.
